Molecular target: Glutamate NMDA receptor; Grin1/Grin2c (Rattus norvegicus, UniProt Q00961+P35439)
Assay: Potentiation of rat recombinant GluN1/GluN2C expressed in Xenopus laevis oocytes assessed as increase in glutamate/glycine-induced current response by two-electrode voltage clamp technique relative to control

Glutamate NMDA receptor; Grin1/Grin2c, sequence (Q00961 whole entry, other chains not shown): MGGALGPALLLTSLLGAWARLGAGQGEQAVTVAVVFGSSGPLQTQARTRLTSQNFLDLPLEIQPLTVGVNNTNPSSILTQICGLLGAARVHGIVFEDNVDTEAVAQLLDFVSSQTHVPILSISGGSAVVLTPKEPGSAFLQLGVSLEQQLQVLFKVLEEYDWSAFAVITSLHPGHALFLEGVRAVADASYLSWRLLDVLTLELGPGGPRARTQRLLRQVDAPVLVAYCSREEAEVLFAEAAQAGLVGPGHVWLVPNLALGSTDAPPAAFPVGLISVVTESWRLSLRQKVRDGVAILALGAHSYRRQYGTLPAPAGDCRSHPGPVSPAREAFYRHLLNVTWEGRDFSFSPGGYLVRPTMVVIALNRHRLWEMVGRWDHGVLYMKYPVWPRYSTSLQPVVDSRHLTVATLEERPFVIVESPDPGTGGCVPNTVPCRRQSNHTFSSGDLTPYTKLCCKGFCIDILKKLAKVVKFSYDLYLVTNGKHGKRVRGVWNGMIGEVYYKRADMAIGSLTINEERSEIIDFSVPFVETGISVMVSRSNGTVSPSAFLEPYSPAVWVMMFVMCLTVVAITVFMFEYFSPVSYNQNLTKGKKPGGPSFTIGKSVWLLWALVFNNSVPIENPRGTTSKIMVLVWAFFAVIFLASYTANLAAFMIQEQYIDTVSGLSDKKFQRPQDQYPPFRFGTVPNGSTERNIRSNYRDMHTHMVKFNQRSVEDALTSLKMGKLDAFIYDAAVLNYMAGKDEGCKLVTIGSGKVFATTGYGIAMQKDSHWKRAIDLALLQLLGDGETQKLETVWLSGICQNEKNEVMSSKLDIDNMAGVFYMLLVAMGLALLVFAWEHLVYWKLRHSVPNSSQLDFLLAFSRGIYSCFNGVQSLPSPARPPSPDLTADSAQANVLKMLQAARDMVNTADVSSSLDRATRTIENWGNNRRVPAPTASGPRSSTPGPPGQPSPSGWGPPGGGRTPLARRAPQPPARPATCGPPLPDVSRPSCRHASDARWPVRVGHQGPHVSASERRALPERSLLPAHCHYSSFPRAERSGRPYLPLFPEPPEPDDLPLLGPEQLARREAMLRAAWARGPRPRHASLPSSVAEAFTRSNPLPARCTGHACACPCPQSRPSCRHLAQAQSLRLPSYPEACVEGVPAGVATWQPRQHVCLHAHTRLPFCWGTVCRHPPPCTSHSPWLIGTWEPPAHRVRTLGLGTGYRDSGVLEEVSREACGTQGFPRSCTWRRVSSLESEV

EC50: 16 µM
SMILES: COC(=O)c1ccc(C2C(C(C)=O)=C(O)C(=O)N2CCc2c(C)[nH]c3ccccc23)cc1 (stereo unspecified)

Reference: BindingDB's records for doi:10.1021/jm401695d (Emory University, 2014)
